Here are results for one molecule from patent publication US20150209294A1, “PHARMACEUTICAL COMPOSITION AND PROCESS” (Hoffmann-La Roche Inc., priority 2006, published 2015).

The bioavailability is dose-corrected exposure relative to a reference, in per cent. The low end stands for poor availability, the high end for good availability.

Data set [1] can be described thus: pH-dependent chemical stability (hydrolysis of ester linkage). The data set is classed as physicochemical. Conditions: at pH>6.
The nature of data set [2]: oral bioavailability in monkeys. Conditions: monkey, in vivo.
Another data set is described as follows: permeability of R 411. It counts as in vitro ADME. Conditions: limited permeability.
The nature of data set [3]: oral bioavailability in dogs. Conditions: dog, in vivo.
Data set [4] can be described thus: oral bioavailability in rats. The conditions noted are these: rat, in vivo.

Consider `CCN(CC)CCOC(=O)[C@H](Cc1ccc(NC(=O)c2c(Cl)cccc2Cl)cc1)NC(=O)c1c(C)cccc1Cl.Cl` [R 411, N-(2-chloro-6-methylbenzoyl)-4-[(2,6-dichlorobenzoyl)amino]-L-phenylalanine-2-(diethylamino)ethyl ester hydrochloride], for which the stability to hydrolysis entry in data set [1] is “prone to alkaline hydrolysis”. For the same molecule, the values for the bioavailability in data set [2], in data set [3] and in data set [4] were 6%, 20% and 20%, respectively. For the same molecule, the permeability in the data set “permeability of R 411” is listed as 58×10^−6 cm^2/sec.
